Assay results taken from patent publication US20100004159A1, “SUBSTITUTED IMIDAZOLONE DERIVATIVES, PREPARATIONS AND USES” (GENFIT, priority 2006, published 2010).

Experiments:
hPPARγ = biological target: T1, hPPARγ (Homo sapiens, UniProt P37231); experiment: Gal4-hPPARγ transactivation in COS-7 cells (luciferase); type: cell-based; conditions: for EC50: Gal4-hPPARγ chimera, COS-7 cells, 24 hours
T1 construct: DNA fragments amplified by PCR and corresponding to the DEF domains of human PPARα, PPARγ, and PPARδ nuclear receptors; expressed in transfected cells; host or cells: COS-7
T1 sequence (P37231 238-503 limits assumed): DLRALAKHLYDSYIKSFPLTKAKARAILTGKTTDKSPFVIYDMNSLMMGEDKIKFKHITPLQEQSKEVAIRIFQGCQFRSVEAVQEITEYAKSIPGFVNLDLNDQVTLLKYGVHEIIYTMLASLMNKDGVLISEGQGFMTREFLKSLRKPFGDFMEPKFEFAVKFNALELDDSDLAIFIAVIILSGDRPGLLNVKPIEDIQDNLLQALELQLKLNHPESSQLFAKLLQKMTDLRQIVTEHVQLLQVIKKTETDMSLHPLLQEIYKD
Procedure: The activation of PPARs was evaluated in vitro using a monkey kidney fibroblast line (COS-7) by measuring the transcriptional activity of chimeras made up of the DNA binding domain of the Gal4 transcription factor of yeast and of the binding domain to the ligand of the different PPARs. The compounds were tested at doses of between 0.01 and 100 μM on Gal4-PPARα, γ, and δ chimeras.
COS-7 cells came from ATCC (American type culture collection) and were cultivated in a DMEM medium supplemented with 10% (vol/vol) of fetal calf serum, 100 U/ml of penicillin (Gibco, Paisley, UK) and 2 mM of L-Glutamine (Gibco, Paisley, UK). The cells were incubated at 37° C. under humid atmosphere containing 5% CO2.
The plasmids Gal4(RE)_TkpGL3, pGal4-hPPARα, pGal4-hPPARγ, pGal4-hPPARδ and pGal4-φ have been described in the literature (Raspe E et al., 1999). The constructions pGal4-hPPARα, pGal4-hPPARγ, and pGal4-hPPARδ were obtained by cloning, in the pGal4-φ vector, DNA fragments amplified by PCR and corresponding to the DEF domains of human PPARα, PPARγ, and PPARδ nuclear receptors.
The COS-7 cells in suspension were transfected with 150 ng of DNA per well, with a pGal4-PPAR/Gal4(RE)_TkpGL3 ratio of 1/10, in presence of 10% fetal calf serum. The cells were then plated in 96-well plates (4×10^4 cells/well), then incubated for 24 hours at 37° C. Activation with the test compounds was performed for 24 hours at 37° C. in a medium without serum. At the end of the experiment, the cells were lysed and the luciferase activity was determined using the Steady-Lite™ HTS (Perkin Elmert) or the Steady Glow Luciferase kit (Promega), in accordance with the provider's recommendations.
The compounds according to the invention were tested at doses between 0,01 and 100 μM on the 3 PPAR isoforms. The results obtained are presented in detail under FIG. 1a.

ApoE2/E2 mouse = experiment: Plasma lipids and cholesterol distribution in dyslipidemic ApoE2/E2 mouse; type: in vivo; conditions: for total cholesterol level / triglyceride level: 7 days per os
Procedure: The hypolipemic properties of the compounds according to the invention were evaluated in vivo by assaying plasma lipids and by an analysis of the gene expression of PPARs target genes, in the liver after a treatment of the dyslipidemic E2/E2 mice with the compounds according to the invention.
The murine model used is the ApoE2/E2 mouse, a transgenic mouse having human apolipoprotein E isoform E2 (Sullivan P M et al., 1998). In human, this apolipoprotein, a constituent of the low and the very low density lipoproteins (LDL-VLDL), exists in three isoforms E2, E3, and E4. The E2 form has a mutation affecting the amino acid of position 158, which considerably weakens the affinity of this protein for the receptors to LDL., the VLDL clearance is nearly non-existent.
The ApoE2/E2 transgenic mice were kept on a 12 hour/12 hour light/dark cycle at a constant temperature of 20±3° C. After a one week acclimatization period, the mice were weighed and divided into groups of 5 animals selected so as to render uniform the distribution of their body weights and their plasma lipid levels, determined before the experiment. The tested compounds were suspended in carboxymethylcellulose (Sigma C4888) and administered by intra-gastric tube feeding, once a day for 7 days at the chosen dose. The animals had free access to food and water. At the end of the experiment, the animals were anesthetized after a 4 hour fast, a blood sample was taken using anticoagulant (EDTA), then the mice were weighed and euthanized. The plasma was separated by centrifugation at 3000 rotations/minute for 20 minutes. The samples were kept at +4° C.
Plasma lipid concentrations (total cholesterol and triglycerides) were measured by enzymatic assays (bioMerieux-Lyon-France) according to the provider's recommendations.
The different lipid fractions (VLDL, LDL,HDL) of the plasma were separated by gel-filtration chromatography. The concentrations of cholesterol of each fraction were then measured by enzymatic assays (bioMerieux-Lyon-France) according to the provider's recommendations.

[1] = tested on: Wistar rats under perfusion of angiotensin II; experiment: Arterial pressure of Wistar rats under angiotensin II perfusion; type: in vivo, rat; conditions: angiotensin II perfusion 100 ng/kg/min; intravenous increasing doses 1, 3, 10 and 30 mpk
Procedure: This experimental procedure is intended to show the anti-hypertensive effects of the compounds according to the invention in Wistar rats in which hypertension is induced either by continuous intravenous administration of angiotensin II (example 21.1) or by repeated intravenous administration of angiotensin II (example 21.2). The animals were treated with the compounds according to the invention intravenously at increasing doses. To validate the study, the control animals were administered, in the same conditions, either the vehicle itself or a reference.
Wistar rats (males—200-250 g—5-6 weeks old—CERJ) were anesthetized for surgery using pentobarbital (50 mg/kg). A catheter was placed in the right jugular vein for the angiotensin II perfusion. A catheter was placed in the left jugular vein for the administration of the compounds according to the invention. The angiotensin II perfusion at 100 ng/kg/min was performed using an auto-syringe set at 5 ml/hour (vehicle NaCl 0.15M). A solution of Na2CO3/NaHCO3 (50 mM pH 9.6) served as the vehicle for the compounds according to the invention. Arterial pressure was measured using a sensor set in the carotid artery via a catheter.
The arterial pressure of the animal was measured for few minutes in basal conditions, before the angiotensin II perfusion was put into place. […]

[2] = 7-day treatment, 10, 30 and 100 mpk

| SMILES | EC50 (hPPARγ) | melting point | HDL-cholesterol fraction (ApoE2/E2 mouse; [2]) | cholesterol in VLDL and LDL fractions (ApoE2/E2 mouse; [2]) | total cholesterol level (ApoE2/E2 mouse; 10, 30 or 100 mpk) | triglyceride level (ApoE2/E2 mouse; 10, 30 or 100 mpk) | arterial pressure: antagonist effect on angiotensin II [1] | activation of hPPARγ (luciferase activity) (hPPARγ; COS-7 cells transfected pGal4-hPPAR, 0.01 to 100 μM) | total cholesterol level (ApoE2/E2 mouse; 25, 50, 100 and 200 mpk) | triglyceride level (ApoE2/E2 mouse; 25, 50, 100 and 200 mpk) |
| --- | --- | --- | --- | --- | --- | --- | --- | --- | --- | --- |
| CCCCC1=NC2(CCCCC2)C(=O)N1Cc1ccc(-c2cccc(OC(C)(C)C(=O)O)c2)cc1 [Compound 21, 2-butyl-1-[(3′-((1-carboxy-1,1-dimethylmethyl)oxy)biphenyl-4-yl)methyl]-4-spirocyclohexyl-1H-imidazol-5(4H)-one] | 1 µM | 160 to 162 °C | significant increase | significant decrease | remarkable dose-dependently decrease | remarkable dose-dependently decrease | antagonist effect on angiotensin II in a significant and dose-dependent way |  |  |  |
| CCCCC1=NC2(CCCC2)C(=O)N1Cc1ccc(-c2cccc(OC(C)(C)C(=O)O)c2)cc1 [Compound 1, 2-butyl-1-[(3′-((1-carboxy-1,1-dimethylmethyl)oxy)biphenyl-4-yl)methyl]-4-spirocyclopentyl-1H-imidazol-5(4H)-one] | 8 µM | 169 to 171 °C |  |  |  |  | antagonist effect on angiotensin II in a significant and dose-dependent way | activate the two PPAR isoforms | remarkable dose-dependently decrease | remarkable dose-dependently decrease |
